These results are taken from patent EP4650002A1 (Ludwig-Maximilians-Universität, priority 2024, dated 2025).

Each structure is given as a SMILES string.

For this test, the target named is T1, human TLX (Homo sapiens, UniProt Q9Y466).
T1 construct: expressed in transfected cells; host or cells: HEK293T
The experiment in a line: Gal4 hybrid reporter gene assay (TLX modulation). The class given is cell-based. Further details: key to relative reporter activity: fraction of DMSO control (DMSO = 1). To be noted: for relative reporter activity: DMSO control = 1; for EC50: Gal4-TLX hybrid reporter in HEK293T cells, 16 h incubation. On the procedure: In the Tables, the TLX relative reporter activity is expressed as EC50 (in µM) for each listed compound. "EC50" refers to a measure of the concentration of a compound which induces a biological response halfway between the baseline and maximum after a specified exposure time. […] The EC50 is measured via a hybrid reporter gene assay, employing the transfection of a reporter (firefly luciferase with Gal4 response element), a control gene (Renilla luciferase), a transcriptional activator (Gal4-VP16) and a hybrid receptor consisting of the TLX ligand binding domain (LBD) and the Gal4 DNA binding domain (DBD).
Hybrid reporter gene assays. […] After 24 h, medium was changed to Opti-MEM without supplements and cells were transiently transfected using Lipofectamine LTX reagent (Invitrogen, Carlsbad, CA, USA) according to the manufacturer's protocol. Five hours after transfection, cells were incubated with the test compounds in Opti-MEM supplemented with penicillin (100 U/mL), streptomycin (100 µg/mL) and 0.1% DMSO for 16 h before luciferase activity was measured using the Dual-Glo Luciferase Assay System (Promega) according to the manufacturer's protocol on a Tecan Spark luminometer (Tecan Deutschland GmbH, Crailsheim, Germany). Firefly luminescence was divided by Renilla luminescence and multiplied by 1000 resulting in relative light units (RLU) to normalize for transfection efficiency and cell growth. Fold activation was obtained by dividing the mean RLU of test compound by the mean RLU of the untreated control. All samples were tested in at least three biologically independent experiments in duplicates. For dose-response curve fitting and calculation of EC50 values, the equation "[Agonist] vs. response -- Variable slope (four parameters)" was used in GraphPad Prism (version 7.00, GraphPad Software, La Jolla, CA, USA).

[1] abbreviates: minimal remaining or maximum reporter activity after treatment, in brackets below the EC50, <1 agonism, >1 inverse agonism.

By EC50 is commonly meant the concentration giving half of the maximal effect.

T1 sequence (Q9Y466 155-383 limits assumed): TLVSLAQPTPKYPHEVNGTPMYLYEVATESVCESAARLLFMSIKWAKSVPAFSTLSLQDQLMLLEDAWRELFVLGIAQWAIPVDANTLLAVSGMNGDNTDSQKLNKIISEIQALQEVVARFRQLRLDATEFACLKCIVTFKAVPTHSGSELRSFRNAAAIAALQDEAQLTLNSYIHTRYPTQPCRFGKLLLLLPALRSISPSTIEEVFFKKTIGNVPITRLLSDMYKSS

Regarding `Nc1cc(-c2ccc3occc3c2)cc(C(F)(F)F)c1` [compound 91, 3-(benzofuran-5-yl)-5-(trifluoromethyl)aniline], the relative reporter activity result (at 10 µM) is on record as “(0.84±0.06 at 10 µM)”.

`CC(=O)c1ccc(-c2cc(N)cc(C(F)(F)F)c2)s1` [compound 57, 1-(5-(3-amino-5-(trifluoromethyl)phenyl)thiophen-2-yl)ethan-1-one] had an EC50 of 4.4 ± 1.6 µM.

As to `Cc1cn(-c2cc(NC(=O)c3ccnc(Cl)c3)cc(C(F)(F)F)c2)cn1` [compound 12, 2-chloro-N-(3-(4-methyl-1H-imidazol-1-yl)-5-(trifluoromethyl)phenyl)-isonicotinamide], the relative reporter activity entry (at 10 µM) is “(0.71±0.05 at 10 µM)”.

Regarding `COC(=O)c1ccc(-c2cc(N)cc(C(F)(F)F)c2)s1` [compound 58, methyl 5-(3-amino-5-(trifluoromethyl)phenyl)thiophene-2-carboxylate], the EC50 was 3.5 ± 1.8 µM.

In turn, `Cc1cc(-c2cc(N)cc(Cl)c2)ccn1` [compound 111, 3-chloro-5-(2-methylpyridin-4-yl)aniline] returned an EC50 of 10 ± 7 µM.

Take `Cc1cc(-c2cc(NC(=O)Cc3ccccc3)cc(C(F)(F)F)c2)ccn1` [compound 76, N-(3-(2-methylpyridin-4-yl)-5-(trifluoromethyl)phenyl)-2-phenylacetamide]: a half-maximal effect (EC50) was put at 0.3 ± 0.07 µM. For the same compound, under setting [1], the relative reporter activity amounted to 0.12±0.06.

Take `Cc1c(-c2cc(N)cc(C(F)(F)F)c2)cnn1C` [compound 49, 3-(1,5-dimethyl-1H-pyrazol-4-yl)-5-(trifluoromethyl)aniline]: the EC50 was 3.9 ± 1.6 µM. The compound also had a relative reporter activity under setting [1] of 0.49±0.11.

The compound `Cc1cc(-c2cc(NC(=O)C3CCC3)cc(C(F)(F)F)c2)ccn1` [compound 82, N-(3-(2-methylpyridin-4-yl)-5-(trifluoromethyl)phenyl)cyclobutanecarboxamide] yielded an EC50 of 0.6 ± 0.2 µM. In addition, the relative reporter activity under setting [1] came to 0.17±0.09.

Compound `Cn1ccc2cc(-c3cc(N)cc(C(F)(F)F)c3)cnc21` [compound 98, 3-(1-methyl-1H-pyrrolo[2,3-b]pyridin-5-yl)-5-(trifluoromethyl)aniline] displayed an EC50 of 0.4 ± 0.07 µM. The same compound showed a relative reporter activity under setting [1] of 0.29±0.03.

In turn, `CC(=O)Nc1cc(-c2ccnc(C)c2)cc(C(F)(F)F)c1` [compound 79, N-(3-(2-methylpyridin-4-yl)-5-(trifluoromethyl)phenyl)acetamide] gave an EC50 of 2.6 ± 0.4 µM. Besides, the relative reporter activity under setting [1] came out at 0.18±0.06.

`Cc1cn(-c2cc(NC(=O)c3ccccc3)cc(C(F)(F)F)c2)cn1` [compound 14, N-(3-(4-methyl-1H-imidazol-1-yl)-5-(trifluoromethyl)phenyl)benzamide] showed an EC50 of 8 ± 1 µM. Besides, the relative reporter activity under setting [1] is given as 0.38±0.08.

The compound `Nc1cc(-c2ccn3ccnc3c2)cc(C(F)(F)F)c1` [compound 94, 3-(imidazo[1,2-a]pyridin-7-yl)-5-(trifluoromethyl)aniline] displayed an EC50 of 3.7 ± 0.6 µM.

Consider `Cc1cc(C(=O)Nc2cc(N)cc(C(F)(F)F)c2)nn1C` [compound 46, N-(3-amino-5-(trifluoromethyl)phenyl)-1,5-dimethyl-1H-pyrazole-3-carboxamide], for which the EC50 was determined as 11 ± 5 µM. Moreover, the relative reporter activity under setting [1] was 0.20±0.02.

Regarding `Cc1cn(-c2cccc(NC(=O)Cc3ccccc3Cl)c2)cn1` [compound 103, 2-(2-chlorophenyl)-N-(3-(4-methyl-1H-imidazol-1-yl)phenyl)acetamide], the EC50 amounted to 1.9 ± 0.5 µM. This compound came in with a relative reporter activity under setting [1] of 0.18±0.10.

`CC(=O)c1cc(-c2cc(NC(=O)Cc3ccccc3Cl)cc(C(F)(F)F)c2)cs1` [compound 62, N-(3-(5-acetylthiophen-3-yl)-5-(trifluoromethyl)phenyl)-2-(2-chlorophenyl)-acetamide] yielded an EC50 of 0.36 ± 0.09 µM. Further, the relative reporter activity under setting [1] came out at 0.27±0.03.

For `Cc1cc(-c2cc(N)cc(C(F)(F)F)c2)cnc1C` [compound 69, 3-(5,6-dimethylpyridin-3-yl)-5-(trifluoromethyl)aniline], the midpoint of the response, the EC50, lay at 6.3 ± 2.1 µM.

In turn, `Nc1cc(-c2cscn2)cc(C(F)(F)F)c1` [compound 63, 3-(thiazol-4-yl)-5-(trifluoromethyl)aniline] came in with a concentration for a half-maximal effect (EC50) of 11 ± 3 µM. Besides, the relative reporter activity under setting [1] was 0.58±0.10.

Consider `Nc1cc(-c2cn[nH]c2)cc(C(F)(F)F)c1` [compound 39, 3-(1H-Pyrazol-4-yl)-5-(trifluoromethyl)aniline], for which the relative reporter activity result (at 50 µM) is “(0.35±0.06 at 50 µM)”.

For `Cc1nc(-c2cc(N)cc(C(F)(F)F)c2)cs1` [compound 64, 3-(2-methylthiazol-4-yl)-5-(trifluoromethyl)aniline], the relative reporter activity entry (at 120 µM) is reported as “(0.67±0.06 at 120 µM)”.
